B1: recombinant IL-9: Recombinant IL-9 cytokine added to IL-9ko mice in the 4T1 lung metastasis model (protein, UniProt P15247 19-144, looked up)
Interleukin-9: QRCSTTWGIRDTNYLIENLKDDPPSKCSCSGNVTSCLCLSVPTDDCTTPCYREGLLQLTNATQKSRLLPVFHRVKRIVEVLKNITCPSFSCEKPCNQTMAGNTLSFLKSLLGTFQKTEMQRQKSRP

Tests used:
[1] = test system: CD4^+ T cells; experiment: IFNγ ELISpot assay of enriched T cells; type: cell-based, mice; conditions: CD4^+ T cells plus tumor cell lines, no syngeneic antigen-presenting cells; positive control
Method: 1×10^5 4T1 splenocytes were co cultured with either 5×10^4 4T1 or TUBO cells. 5×10^4 4T1 lymphocytes were co cultured with either 2.5×10^4 4T1 or TUBO cells, following the manufacturers' instructions. CD4^+ and CD8^+ T cells were enriched from the spleens of naïve and 4T1-bearing WT and IL-9ko mice using a negative isolation kit (Invitrogen, Carlsbad Calif.). 1×10^5 T cells were co-cultured with 2.5×10^4 4T1 cells or with BM185, a non-specific control tumor line for 40 hours. Each experimental condition was executed in biological triplicates, which in turn comprised triplicate wells. Manufacturer's instructions were followed to reveal INFγ positive spots using the interferon gamma ELISpot kit from Mabtech (cat #3321-2HW-Plus). The plates were imaged and evaluated by ZellNet Consulting, Inc. (Fort Lee N.J.), and result expressed as average of triplicate spots per condition. Phorbol 12-myristate 13-acetate (PMA) was used as a positive control of cell activation.
These cells were co-cultured with 4T1 or BM185 cells, a BALB/c background murine leukemia cell line used here as a negative control (FIG. 4C). […]

[2] = test system: 4T1 cells; experiment: Experimental metastasis model, tail vein injection of 4T1 cells, foci in the lung; type: in vivo; conditions: IL-9ko mice, 1×10^5 4T1 cells tail vein; IL-9ko without IL-9: 3, WT: 87; p=0.043
From the text: Since few IL-9ko mice that developed 4T1 tumors never had evidence of macro metastases in the lungs, an experimental metastasis model was used to verify whether IL-9 plays a role in 4T1 seeding in the lung. […] Addition of recombinant IL-9 led to enhanced 4T1 seeding in the lungs of IL-9ko mice (an average of 13 foci per lung) (p=0.043, FIGS. 7A and 7B).

Row | Molecule | IFNγ^+ spots [1] | average foci per lung [2] [foci per lung]
1 | CCCCCCCCCCCCCC(=O)O[C@@H]1[C@@H](C)[C@@]2(O)[C@@H](C=C(CO)C[C@]3(O)C(=O)C(C)=C[C@@H]23)[C@@H]2C(C)(C)[C@]12OC(C)=O [PMA, Phorbol 12-myristate 13-acetate] | produced IFNγ^+ spots only if exposed to PMA | –
2 | B1 | – | 13
